Assay results taken from patent publication US20110053923A1, “CHEMICAL COMPOUNDS 610” (AstraZeneca, priority 2008, published 2011).
Like-named read-outs stand apart in the source and are kept apart here.

Experiments:
[1] = tested on: HT29 cells; test: Cellular SRB assay (Test (d)), potentiation of carboplatin; assay type: cell-based; conditions: for IC50: geometric mean
Experimental: (d) Cellular—SRB Assay The potentiation factor (PF50) for compounds is a measure of the fold increase in effect of a chemotherapeutic agent, when used in combination with an ATR inhibitor. Specifically, this is calculated as a ratio of the IC50 of control cell growth in the presence of a chemotherapeutic agent, typically carboplatin, divided by the IC50 of cell growth in the presence of this agent and the ATR inhibitor of interest. For this purpose, HT29 cells were seeded at the appropriate density to ensure exponential growth throughout the time of the assay (typically 1000-1500 cells) in each well of a 96-well plate, in a volume of 80 μl and incubated overnight at 37° C. Subsequently, cells were dosed with either DMSO vehicle, or treated with test compounds at fixed concentrations (typically 1, 0.3 & 0.1 μM). Following a one hour incubation at 37° C., the cells were further treated with a 10 point dose response of the chemotherapeutic agent, based on it's known sensitivity (typically 30-0.001 ug/ml for carboplatin). Cells were left to grow for 5 days at 37° C., after which time cell growth was assessed using the sulforhodamine B (SRB) assay (Skehan, P et al, 1990 New colorimetric cytotoxic assay for anticancer-drug screening. J. Natl. Cancer Inst. 82, 1107-1112.). Specifically, the media was removed and cells fixed with 100 μl of ice cold 10% (w/v) trichloroacetic acid. The plates were then incubated at 4° C. for 20 minutes prior to washing 4 times with water. Each well was then stained with 100 μL of 0.4% (w/v) SRB in 1% acetic acid for 20 minutes before a further 4 washes with 1% acetic acid. Plates were then dried for 2 hours at room temperature and the dye was solubilized by the addition of 100 μL Tris Base pH 8.5 into each well. Plates were shaken before measuring optical density at 564 nm (OD564). In order to calculate the PF50, the OD564 values obtained for the dose-response curve of chemotherapeutic agent were expressed as a percentage of the value obtained from cells treated with vehicle alone. Similarly, to act as a control for inclusion of the ATR inhibitor, values from the chemotherapeutic agent tested in combination with a fixed ATR inhibitor concentration were expressed as a percentage of the value obtained from cells treated with the corresponding concentration of ATR inhibitor alone. From these internally-controlled curves, IC50 values were calculated and the PF50 was determined as the ratio of these values, as described above. Compounds are compared using the PF50 value at concentrations of ATR inhibitor that show minimal growth inhibition on their own.

[2] = molecular target: T1, ATR (Homo sapiens, UniProt Q13535); test: Enzyme Assay - ATR (Test (a)); assay type: biochemical; conditions: ATR immunoprecipitated from HeLa nuclear extract; 3 μM ATP; average of individual tests; read-out: ATR average IC50;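 further: kinase activity of bead-bound ATR toward a GST-p53 N-terminal fragment substrate, 1 h at 37 °C, read by chemiluminescence, with inhibitor-free wells as control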
T1 construct: obtained from HeLa nuclear extract (CIL Biotech, Mons, Belgium) by immunoprecipitation with rabbit polyclonal antiserum raised to amino acids 400-480 of ATR; host or cells: HeLa nuclear extract

[3] = molecular target: mTOR (Homo sapiens, UniProt P42345); test: Enzyme - mTOR Kinase Assay (Echo); assay type: biochemical; conditions: recombinant FLAG-tagged mTOR (1362-2549); AlphaScreen; ATP 20 μM;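 further: enzyme expressed in HEK293 cells, 2 h incubation at room temperature, read-out is phosphorylation of a biotinylated peptide substrate detected with an anti-phospho p70 S6 Kinase (T389) antibody, inhibition lowers signal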
Sequence of mTOR (P42345 1362-2549): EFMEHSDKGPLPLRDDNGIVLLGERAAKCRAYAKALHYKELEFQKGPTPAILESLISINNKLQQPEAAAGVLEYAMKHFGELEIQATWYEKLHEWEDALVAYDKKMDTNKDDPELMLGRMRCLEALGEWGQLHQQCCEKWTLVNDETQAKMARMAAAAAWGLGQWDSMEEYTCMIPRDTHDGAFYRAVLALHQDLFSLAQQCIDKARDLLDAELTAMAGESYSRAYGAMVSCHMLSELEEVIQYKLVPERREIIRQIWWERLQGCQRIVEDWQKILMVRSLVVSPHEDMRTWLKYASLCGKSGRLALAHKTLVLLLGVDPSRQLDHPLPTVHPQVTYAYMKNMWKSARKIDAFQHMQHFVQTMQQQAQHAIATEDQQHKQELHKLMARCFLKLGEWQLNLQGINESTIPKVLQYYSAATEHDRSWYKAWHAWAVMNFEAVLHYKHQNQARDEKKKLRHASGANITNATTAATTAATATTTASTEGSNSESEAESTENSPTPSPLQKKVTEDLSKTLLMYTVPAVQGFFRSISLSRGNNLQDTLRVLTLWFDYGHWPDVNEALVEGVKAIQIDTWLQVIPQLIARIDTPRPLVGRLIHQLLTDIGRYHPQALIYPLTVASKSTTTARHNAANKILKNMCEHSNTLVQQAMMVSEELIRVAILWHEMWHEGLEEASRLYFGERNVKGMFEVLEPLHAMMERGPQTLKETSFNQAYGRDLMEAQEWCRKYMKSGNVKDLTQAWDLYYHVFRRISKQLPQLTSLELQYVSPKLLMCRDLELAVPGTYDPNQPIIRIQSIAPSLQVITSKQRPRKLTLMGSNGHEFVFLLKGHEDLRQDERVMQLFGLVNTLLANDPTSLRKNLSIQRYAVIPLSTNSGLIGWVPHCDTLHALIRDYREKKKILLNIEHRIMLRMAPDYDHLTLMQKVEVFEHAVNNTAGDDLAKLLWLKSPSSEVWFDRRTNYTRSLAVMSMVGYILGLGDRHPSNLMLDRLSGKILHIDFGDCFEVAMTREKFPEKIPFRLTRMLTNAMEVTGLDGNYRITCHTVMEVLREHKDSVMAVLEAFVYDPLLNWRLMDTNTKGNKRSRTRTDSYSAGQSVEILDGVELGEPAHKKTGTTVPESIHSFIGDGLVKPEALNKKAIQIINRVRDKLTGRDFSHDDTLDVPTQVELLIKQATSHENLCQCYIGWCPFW

T1 sequence (Q13535 whole entry, the tested form may be a part): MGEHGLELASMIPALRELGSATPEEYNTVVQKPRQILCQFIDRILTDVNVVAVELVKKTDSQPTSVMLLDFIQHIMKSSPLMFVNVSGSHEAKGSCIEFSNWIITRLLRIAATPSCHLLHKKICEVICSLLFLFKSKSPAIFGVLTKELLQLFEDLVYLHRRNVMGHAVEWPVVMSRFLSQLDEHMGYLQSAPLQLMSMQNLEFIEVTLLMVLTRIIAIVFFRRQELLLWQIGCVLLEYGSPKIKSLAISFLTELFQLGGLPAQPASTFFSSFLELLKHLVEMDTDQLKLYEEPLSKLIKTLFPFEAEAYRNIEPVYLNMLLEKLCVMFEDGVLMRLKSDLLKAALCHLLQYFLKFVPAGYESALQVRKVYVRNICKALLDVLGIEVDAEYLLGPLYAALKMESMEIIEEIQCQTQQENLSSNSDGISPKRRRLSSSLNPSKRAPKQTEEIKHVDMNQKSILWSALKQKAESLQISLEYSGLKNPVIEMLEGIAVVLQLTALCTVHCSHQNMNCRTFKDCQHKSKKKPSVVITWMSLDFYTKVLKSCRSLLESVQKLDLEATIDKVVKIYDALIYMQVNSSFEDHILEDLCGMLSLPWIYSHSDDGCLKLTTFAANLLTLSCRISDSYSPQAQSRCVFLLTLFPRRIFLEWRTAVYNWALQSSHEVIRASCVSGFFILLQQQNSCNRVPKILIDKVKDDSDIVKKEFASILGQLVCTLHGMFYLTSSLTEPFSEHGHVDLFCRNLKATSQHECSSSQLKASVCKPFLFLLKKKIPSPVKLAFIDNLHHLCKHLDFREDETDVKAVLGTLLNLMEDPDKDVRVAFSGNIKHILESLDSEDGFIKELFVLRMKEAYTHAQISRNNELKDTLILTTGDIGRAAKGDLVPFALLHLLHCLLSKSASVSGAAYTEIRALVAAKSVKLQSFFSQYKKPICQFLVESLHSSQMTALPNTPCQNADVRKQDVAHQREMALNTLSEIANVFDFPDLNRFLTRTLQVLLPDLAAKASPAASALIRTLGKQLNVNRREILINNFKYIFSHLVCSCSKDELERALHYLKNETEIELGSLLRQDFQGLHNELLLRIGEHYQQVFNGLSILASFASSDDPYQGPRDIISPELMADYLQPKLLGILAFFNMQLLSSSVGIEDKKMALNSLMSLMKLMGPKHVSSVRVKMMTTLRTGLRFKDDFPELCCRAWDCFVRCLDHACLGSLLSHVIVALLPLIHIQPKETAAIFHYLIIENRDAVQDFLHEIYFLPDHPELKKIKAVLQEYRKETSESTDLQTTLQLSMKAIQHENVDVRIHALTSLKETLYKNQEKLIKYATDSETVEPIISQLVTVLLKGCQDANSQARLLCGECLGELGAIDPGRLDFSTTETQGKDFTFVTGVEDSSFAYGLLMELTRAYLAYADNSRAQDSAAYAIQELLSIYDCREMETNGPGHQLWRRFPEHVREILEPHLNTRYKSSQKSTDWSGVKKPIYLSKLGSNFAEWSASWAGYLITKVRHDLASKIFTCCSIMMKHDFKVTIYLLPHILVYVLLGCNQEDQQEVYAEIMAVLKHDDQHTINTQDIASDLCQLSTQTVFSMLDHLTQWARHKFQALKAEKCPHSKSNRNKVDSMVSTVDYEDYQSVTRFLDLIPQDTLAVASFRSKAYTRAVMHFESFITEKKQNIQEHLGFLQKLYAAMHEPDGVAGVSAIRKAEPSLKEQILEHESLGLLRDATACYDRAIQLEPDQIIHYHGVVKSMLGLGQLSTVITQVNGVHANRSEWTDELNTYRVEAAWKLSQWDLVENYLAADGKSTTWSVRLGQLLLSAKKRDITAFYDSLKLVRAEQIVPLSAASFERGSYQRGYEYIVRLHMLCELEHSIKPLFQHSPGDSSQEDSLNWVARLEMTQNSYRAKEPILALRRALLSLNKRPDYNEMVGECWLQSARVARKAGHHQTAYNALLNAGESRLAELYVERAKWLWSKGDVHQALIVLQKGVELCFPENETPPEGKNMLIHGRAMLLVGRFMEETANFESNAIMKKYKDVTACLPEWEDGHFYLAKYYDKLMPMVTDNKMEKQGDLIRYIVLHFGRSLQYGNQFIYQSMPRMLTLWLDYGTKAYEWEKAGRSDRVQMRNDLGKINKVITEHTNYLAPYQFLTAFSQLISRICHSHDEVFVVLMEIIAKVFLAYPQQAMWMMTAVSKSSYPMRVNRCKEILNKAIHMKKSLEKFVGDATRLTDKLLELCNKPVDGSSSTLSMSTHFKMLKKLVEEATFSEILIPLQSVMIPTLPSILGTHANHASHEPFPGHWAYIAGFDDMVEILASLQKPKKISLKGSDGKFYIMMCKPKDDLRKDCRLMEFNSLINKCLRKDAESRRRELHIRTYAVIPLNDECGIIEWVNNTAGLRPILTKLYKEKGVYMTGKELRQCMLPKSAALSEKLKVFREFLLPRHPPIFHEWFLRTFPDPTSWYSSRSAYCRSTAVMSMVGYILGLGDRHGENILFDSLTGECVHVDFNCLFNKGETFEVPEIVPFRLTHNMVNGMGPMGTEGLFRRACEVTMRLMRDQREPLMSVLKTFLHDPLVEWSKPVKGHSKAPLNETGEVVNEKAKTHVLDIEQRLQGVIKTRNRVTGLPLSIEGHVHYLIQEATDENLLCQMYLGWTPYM
T1 sequence (Q8WXE1 whole entry partner, the tested form may be a part): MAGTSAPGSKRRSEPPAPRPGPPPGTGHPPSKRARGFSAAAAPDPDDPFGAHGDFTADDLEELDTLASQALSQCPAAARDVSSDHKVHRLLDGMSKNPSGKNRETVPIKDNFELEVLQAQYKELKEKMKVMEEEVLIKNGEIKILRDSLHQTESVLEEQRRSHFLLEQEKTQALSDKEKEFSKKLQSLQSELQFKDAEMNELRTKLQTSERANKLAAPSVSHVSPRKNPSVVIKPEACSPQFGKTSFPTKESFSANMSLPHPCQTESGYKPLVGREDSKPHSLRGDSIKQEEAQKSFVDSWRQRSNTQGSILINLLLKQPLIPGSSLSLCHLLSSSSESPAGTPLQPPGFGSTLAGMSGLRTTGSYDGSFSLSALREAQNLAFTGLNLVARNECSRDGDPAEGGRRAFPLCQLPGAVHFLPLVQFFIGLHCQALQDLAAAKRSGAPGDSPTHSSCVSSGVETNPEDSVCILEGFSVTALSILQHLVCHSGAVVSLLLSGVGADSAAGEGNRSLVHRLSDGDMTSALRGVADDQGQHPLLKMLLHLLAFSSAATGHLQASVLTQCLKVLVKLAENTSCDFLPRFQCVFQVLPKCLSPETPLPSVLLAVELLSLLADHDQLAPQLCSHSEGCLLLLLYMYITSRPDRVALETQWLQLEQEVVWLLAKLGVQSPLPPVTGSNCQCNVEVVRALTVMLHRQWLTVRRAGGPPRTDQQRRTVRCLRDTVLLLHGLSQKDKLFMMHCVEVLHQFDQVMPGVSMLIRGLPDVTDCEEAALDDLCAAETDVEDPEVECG

SMILES	IC50 [2] [nM]	IC50 [3] [nM]	further results
N.N.O=C([O-])C1(C(=O)[O-])CCC1.[Pt+2] [Carboplatin, reference compound]			IC50 ([1]; Carboplatin alone, 5 days growth): 3.97 µg/mL
C[C@@H]1COCCN1c1cc(C2(S(C)(=O)=O)CC2)nc(-c2cccc3[nH]ccc23)n1 [Example 3.01, 4-{4-[(3R)-3-Methylmorpholin-4-yl]-6-[1-(methylsulfonyl)cyclopropyl]pyrimidin-2-yl}-1H-indole]			IC50 ([1]; Homo sapiens, HT-29, 120 h, Carboplatin + 0.1 uM Example 3.01, 5 days growth, read-out: IC50): 1.96 µg/mL; IC50 ([1]; Homo sapiens, HT-29, 120 h, Carboplatin + 0.3 uM Example 3.01, 5 days growth, read-out: IC50): 0.39 µg/mL; PF50 ([1]; potentiation factor of Carboplatin by 0.1 uM Example 3.01 (ratio of IC50 values)): 2.02; PF50 ([1]; potentiation factor of Carboplatin by 0.3 uM Example 3.01 (ratio of IC50 values)): 10.08
C[C@H]1COCCN1c1cc(C2(S(C)(=O)=O)CCCC2)nc(-c2cccc3[nH]ccc23)n1 [Example 2.03, 4-{4-[(3S)-3-Methylmorpholin-4-yl]-6-[1-(methylsulfonyl)cyclopentyl]pyrimidin-2-yl}-1H-indole]	6.21	99	
O=S(=O)(C1CC1)C1(c2cc(N3CCOCC3)nc(-c3cccc4[nH]ccc34)n2)CCNCC1 [Example 1.14, 4-{4-[4-(cyclopropylsulfonyl)piperidin-4-yl]-6-morpholin-4-ylpyrimidin-2-yl}-1H-indole]	22.4	1460	
CS(=O)(=O)C1(c2cc(N3CCOCC3)nc(-c3cc(C#N)cc4[nH]ccc34)n2)CC1 [Example 1.05, 4-{4-[1-(methylsulfonyl)cyclopropyl]-6-morpholin-4-ylpyrimidin-2-yl}-1H-indole-6-carbonitrile]	65.9	326	
Cc1cc(-c2nc(N3CCOCC3)cc(C3(S(C)(=O)=O)CC3)n2)c2cc[nH]c2c1 [Example 1.02, 6-Methyl-4-{4-[1-(methylsulfonyl)cyclopropyl]-6-morpholin-4-ylpyrimidin-2-yl}-1H-indole]	7.67	110	
C[C@@H]1COCCN1c1cc(C2(S(=O)(=O)C3CC3)CCNCC2)nc(-c2cccc3[nH]ccc23)n1 [Example 3.18, 4-{4-[4-(Cyclopropylsulfonyl)piperidin-4-yl]-6-[(3R)-3-methylmorpholin-4-yl]pyrimidin-2-yl}-1H-indole]	7.62	383	
O=S(=O)(C1CC1)C1(c2cc(N3CCOCC3)nc(-c3cccc4[nH]ccc34)n2)CC1 [Example 1.12, 4-{4-[1-(cyclopropylsulfonyl)cyclopropyl]-6-morpholin-4-ylpyrimidin-2-yl}-1H-indole]	32.1	> 90000	
Cc1cc2c(-c3nc(N4CCOC[C@H]4C)cc(C4(S(C)(=O)=O)CC4)n3)cccc2[nH]1 [Example 3.03, 2-Methyl-4-{4-[(3R)-3-methylmorpholin-4-yl]-6-[1-(methylsulfonyl)cyclopropyl]pyrimidin-2-yl}-1H-indole]	5.46	46.3	
C[C@H]1COCCN1c1cc(C2(S(=O)(=O)C3CC3)CCNCC2)nc(-c2cccc3[nH]ccc23)n1 [Example 2.01, 4-{4-[4-(Cyclopropylsulfonyl)piperidin-4-yl]-6-[(3S)-3-methylmorpholin-4-yl]pyrimidin-2-yl}-1H-indole]	26.8	497	
O=S(=O)(C1CC1)C1(c2cc(N3CCOCC3)nc(-c3cccc4[nH]ccc34)n2)CCOCC1 [Example 1.13, 4-{4-[4-(cyclopropylsulfonyl)tetrahydro-2H-pyran-4-yl]-6-morpholin-4-ylpyrimidin-2-yl}-1H-indole]	58.3	1240	
C[C@H]1COCCN1c1cc(C2(S(=O)(=O)C3CC3)CCOCC2)nc(-c2cccc3[nH]ccc23)n1 [Example 2.02, 4-{4-[4-(Cyclopropylsulfonyl)tetrahydro-2H-pyran-4-yl]-6-[(3S)-3-methylmorpholin-4-yl]pyrimidin-2-yl}-1H-indole]	376	467	
C[C@@H]1COCCN1c1cc(C2(S(=O)(=O)C3CC3)CCOCC2)nc(-c2cccc3[nH]ccc23)n1 [Example 3.19, 4-{4-[4-(Cyclopropylsulfonyl)tetrahydro-2H-pyran-4-yl]-6-[(3R)-3-methylmorpholin-4-yl]pyrimidin-2-yl}-1H-indole]	97.6	2820	

Further compounds by falling IC50 [2], results first:

IC50 [2] [nM]	IC50 [3] [nM]	SMILES	further results
4.55	300	C[C@H]1COCCN1c1cc(C2(S(C)(=O)=O)CCOCC2)nc(-c2cccc3[nH]ccc23)n1 [Example 2.04, 4-{4-[(3S)-3-Methylmorpholin-4-yl]-6-[4-(methylsulfonyl)tetrahydro-2H-pyran-4-yl]pyrimidin-2-yl}-1H-indole]	
4.23	54.6	C[C@@H]1COCCN1c1cc(C2(S(C)(=O)=O)CC2)nc(-c2cc(Cl)cc3[nH]ccc23)n1 [Example 3.05, 6-chloro-4-{4-[(3R)-3-methylmorpholin-4-yl}-6-[1-(methylsulfonyl)cyclopropyl]pyrimidin-2-yl}-1H-indole]	
3.58	145	Cc1cc2c(-c3nc(N4CCOC[C@H]4C)cc(C4(S(C)(=O)=O)CCOCC4)n3)cccc2[nH]1 [Example 3.10, 2-Methyl-4-{4-[(3R)-3-methylmorpholin-4-yl]-6-[4-(methylsulfonyl)tetrahydro-2H-pyran-4-yl]pyrimidin-2-yl}-1H-indole]	
2.5	420	C[C@@H]1COCCN1c1cc(C2(S(C)(=O)=O)CCOCC2)nc(-c2cc(Cl)cc3[nH]ccc23)n1 [Example 3.12]	
2.47	89.1	CC(C)S(=O)(=O)C1(c2cc(N3CCOC[C@H]3C)nc(-c3cccc4[nH]ccc34)n2)CC1 [Example 3.23, 4-(4-{1-[(1-Methylethyl)sulfonyl]cyclopropyl}-6-[(3R)-3-methylmorpholin-4-yl]pyrimidin-2-yl)-1H-indole]	
2.26	97.8	C[C@@H]1COCCN1c1cc(C2(S(=O)(=O)C3CC3)CC2)nc(-c2cccc3[nH]ccc23)n1 [Example 3.17, 4-{4-[1-(Cyclopropylsulfonyl)cyclopropyl]-6-[(3R)-3-methylmorpholin-4-yl]pyrimidin-2-yl}-1H-indole]	
1.53	250	C[C@@H]1COCCN1c1cc(C2(S(C)(=O)=O)CCOCC2)nc(-c2cc(F)cc3[nH]ccc23)n1 [Example 3.13, 6-fluoro-4-{4-[(3R)-3-methylmorpholin-4-yl]-6-[4-(methylsulfonyl)tetrahydro-2H-pyran-4-yl]pyrimidin-2-yl}-1H-indole]	
